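Dose response: 5 concentrations. Exposure: 48 h. Format: 96-well plates. Endpoint: linear interpolation; highest concentration if not reached. GI50 is the concentration that inhibits growth by half. TGI is the concentration that stops growth completely.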
How the values were obtained:
Assay in all cases: NCI anticancer screen, dose series, 48 h
786-0 renal = system: 786-0 renal
A498 renal = system: A498 renal
A549 NSCLC = system: A549 NSCLC
ACHN renal = system: ACHN renal
BT-549 breast = system: BT-549 breast
CAKI-1 renal = system: CAKI-1 renal
CCRF-CEM leukemia = system: CCRF-CEM leukemia
COLO 205 colon = system: COLO 205 colon
DU-145 prostate = system: DU-145 prostate
EKVX NSCLC = system: EKVX NSCLC
HCC-2998 colon = system: HCC-2998 colon
HCT-116 colon = system: HCT-116 colon
HCT-15 colon = system: HCT-15 colon
HL-60(TB) leukemia = system: HL-60(TB) leukemia
HOP-62 NSCLC = system: HOP-62 NSCLC
HOP-92 NSCLC = system: HOP-92 NSCLC
HS 578T breast = system: HS 578T breast
HT29 colon = system: HT29 colon
IGROV1 ovarian = system: IGROV1 ovarian
K-562 leukemia = system: K-562 leukemia
KM12 colon = system: KM12 colon
LOX IMVI melanoma = system: LOX IMVI melanoma
M14 melanoma = system: M14 melanoma
MALME-3M melanoma = system: MALME-3M melanoma
MCF7 breast = system: MCF7 breast
MDA-MB-231 breast = system: MDA-MB-231 breast
MDA-MB-435 = system: MDA-MB-435
MOLT-4 leukemia = system: MOLT-4 leukemia
NCI-H226 lung = system: NCI-H226 lung
NCI-H23 lung = system: NCI-H23 lung
NCI-H460 lung = system: NCI-H460 lung
NCI-H522 lung = system: NCI-H522 lung
NCI/ADR-RES ovarian = system: NCI/ADR-RES ovarian
OVCAR-3 ovarian = system: OVCAR-3 ovarian
OVCAR-4 ovarian = system: OVCAR-4 ovarian
OVCAR-5 ovarian = system: OVCAR-5 ovarian
OVCAR-8 ovarian = system: OVCAR-8 ovarian
PC-3 prostate = system: PC-3 prostate
RPMI-8226 leukemia = system: RPMI-8226 leukemia
RXF 393 renal = system: RXF 393 renal
SF-268 CNS = system: SF-268 CNS
SF-295 CNS = system: SF-295 CNS
SF-539 CNS = system: SF-539 CNS
SK-MEL-2 melanoma = system: SK-MEL-2 melanoma
SK-MEL-28 melanoma = system: SK-MEL-28 melanoma
SK-MEL-5 melanoma = system: SK-MEL-5 melanoma
SK-OV-3 ovarian = system: SK-OV-3 ovarian
SN12C renal = system: SN12C renal
SNB-75 CNS = system: SNB-75 CNS
SR leukemia = system: SR leukemia
SW-620 colon = system: SW-620 colon
T-47D breast = system: T-47D breast
TK-10 renal = system: TK-10 renal
U251 CNS = system: U251 CNS
UACC-257 melanoma = system: UACC-257 melanoma
UACC-62 melanoma = system: UACC-62 melanoma
UO-31 renal = system: UO-31 renal

`CN(CC(=O)N(Cc1ccc(C2CCCCC2)cc1)c1ccc(C(=O)O)cc1)S(=O)(=O)c1c(F)c(F)c(F)c(F)c1F` gave a GI50 (786-0 renal) of 2.28 µM, a TGI (786-0 renal) of 5.22 µM and a GI50 (A498 renal) of 2.15 µM. The TGI (A498 renal) was 7.65 µM, the GI50 (A549 NSCLC) was 6.59 µM and the TGI (A549 NSCLC) was 21.6 µM. For the same compound, the GI50 (ACHN renal) was 1.74 µM, the TGI (ACHN renal) was 3.15 µM and the GI50 (BT-549 breast) was 2.23 µM. The TGI (BT-549 breast) was 4.36 µM, the GI50 (CAKI-1 renal) was 1.93 µM and the TGI (CAKI-1 renal) was 4.31 µM. It also gave a GI50 (CCRF-CEM leukemia) of 2.69 µM, a TGI (CCRF-CEM leukemia) of 6.81 µM and a GI50 (COLO 205 colon) of 1.97 µM. It also gave a TGI (COLO 205 colon) of 3.95 µM, a GI50 (DU-145 prostate) of 1.74 µM and a TGI (DU-145 prostate) of 3.11 µM. The GI50 (EKVX NSCLC) was 1.63 µM, the TGI (EKVX NSCLC) was 3.58 µM and the GI50 (HCC-2998 colon) was 1.76 µM. The TGI (HCC-2998 colon) was 3.22 µM, the GI50 (HCT-116 colon) was 1.93 µM and the TGI (HCT-116 colon) was 3.68 µM. For the same compound, the GI50 (HCT-15 colon) was 1.74 µM, the TGI (HCT-15 colon) was 3.36 µM and the GI50 (HL-60(TB) leukemia) was 2.08 µM. The TGI (HL-60(TB) leukemia) was 4.48 µM, the GI50 (HOP-62 NSCLC) was 2.09 µM and the TGI (HOP-62 NSCLC) was 4.59 µM. It also gave a GI50 (HOP-92 NSCLC) of 2.11 µM, a TGI (HOP-92 NSCLC) of 4.02 µM and a GI50 (HS 578T breast) of 2.47 µM. The TGI (HS 578T breast) was 6.04 µM, the GI50 (HT29 colon) was 2.01 µM and the TGI (HT29 colon) was 4.11 µM. For the same compound, the GI50 (IGROV1 ovarian) was 2.08 µM, the TGI (IGROV1 ovarian) was 4.46 µM and the GI50 (K-562 leukemia) was 1.93 µM. It also gave a TGI (K-562 leukemia) of 5.81 µM, a GI50 (KM12 colon) of 2.94 µM and a TGI (KM12 colon) of 9.01 µM. The GI50 (LOX IMVI melanoma) was 1.61 µM, the TGI (LOX IMVI melanoma) was 3.03 µM and the GI50 (M14 melanoma) was 1.91 µM. For the same compound, the TGI (M14 melanoma) was 3.59 µM, the GI50 (MALME-3M melanoma) was 1.7 µM and the TGI (MALME-3M melanoma) was 3.64 µM. It also gave a GI50 (MCF7 breast) of 1.65 µM, a TGI (MCF7 breast) of 3.48 µM and a GI50 (MDA-MB-231 breast) of 1.9 µM. For the same compound, the TGI (MDA-MB-231 breast) was 3.51 µM, the GI50 (MDA-MB-435) was 1.75 µM and the TGI (MDA-MB-435) was 3.19 µM. It also gave a GI50 (MOLT-4 leukemia) of 2.42 µM, a TGI (MOLT-4 leukemia) of 6.14 µM and a GI50 (NCI-H226 lung) of 2.49 µM. For the same compound, the TGI (NCI-H226 lung) was 5.51 µM, the GI50 (NCI-H23 lung) was 1.92 µM and the TGI (NCI-H23 lung) was 3.81 µM. The GI50 (NCI-H460 lung) was 3.33 µM, the TGI (NCI-H460 lung) was 10.4 µM and the GI50 (NCI-H522 lung) was 1.77 µM. It also gave a TGI (NCI-H522 lung) of 3.65 µM, a GI50 (NCI/ADR-RES ovarian) of 2.14 µM and a TGI (NCI/ADR-RES ovarian) of 5.26 µM. The GI50 (OVCAR-3 ovarian) was 1.79 µM, the TGI (OVCAR-3 ovarian) was 3.19 µM and the GI50 (OVCAR-4 ovarian) was 1.81 µM. The TGI (OVCAR-4 ovarian) was 3.48 µM, the GI50 (OVCAR-5 ovarian) was 10.8 µM and the TGI (OVCAR-5 ovarian) was 23.8 µM. The GI50 (OVCAR-8 ovarian) was 2.5 µM, the TGI (OVCAR-8 ovarian) was 5.79 µM and the GI50 (PC-3 prostate) was 2.08 µM. It also gave a TGI (PC-3 prostate) of 3.96 µM, a GI50 (RPMI-8226 leukemia) of 2.85 µM and a TGI (RPMI-8226 leukemia) of 7.4 µM. It also gave a GI50 (RXF 393 renal) of 1.93 µM, a TGI (RXF 393 renal) of 3.37 µM and a GI50 (SF-268 CNS) of 1.85 µM. For the same compound, the TGI (SF-268 CNS) was 3.59 µM, the GI50 (SF-295 CNS) was 15.2 µM and the TGI (SF-295 CNS) was 29.4 µM. For the same compound, the GI50 (SF-539 CNS) was 1.69 µM, the TGI (SF-539 CNS) was 3.26 µM and the GI50 (SK-MEL-2 melanoma) was 2.06 µM. It also gave a TGI (SK-MEL-2 melanoma) of 3.68 µM, a GI50 (SK-MEL-28 melanoma) of 1.62 µM and a TGI (SK-MEL-28 melanoma) of 3.03 µM. For the same compound, the GI50 (SK-MEL-5 melanoma) was 1.84 µM, the TGI (SK-MEL-5 melanoma) was 3.58 µM and the GI50 (SK-OV-3 ovarian) was 1.93 µM. The TGI (SK-OV-3 ovarian) was 3.8 µM, the GI50 (SN12C renal) was 2.22 µM and the TGI (SN12C renal) was 4.88 µM. The GI50 (SNB-75 CNS) was 1.61 µM, the TGI (SNB-75 CNS) was 2.96 µM and the GI50 (SR leukemia) was 2.64 µM. The TGI (SR leukemia) was 7.89 µM, the GI50 (SW-620 colon) was 2.03 µM and the TGI (SW-620 colon) was 4.05 µM. For the same compound, the GI50 (T-47D breast) was 2.09 µM, the TGI (T-47D breast) was 4.83 µM and the GI50 (TK-10 renal) was 2.75 µM. The TGI (TK-10 renal) was 10.5 µM, the GI50 (U251 CNS) was 1.86 µM and the TGI (U251 CNS) was 3.31 µM. For the same compound, the GI50 (UACC-257 melanoma) was 2.01 µM, the TGI (UACC-257 melanoma) was 3.71 µM and the GI50 (UACC-62 melanoma) was 1.92 µM. It also gave a TGI (UACC-62 melanoma) of 3.46 µM, a GI50 (UO-31 renal) of 1.91 µM and a TGI (UO-31 renal) of 4.73 µM.

Reference: PubChem BioAssay (NCI)
